Among the data in patent US10344026B2, “Compositions and methods of targeting mutant K-ras” (NANTBIO, INC., priority 2017, dated 2019) are EC50 and IC50 values, retold here.

The structures appear in SMILES notation.

Holding throughout (assay type): cell-based
Assay [1] has as its system phospho-Akt in Panc1 (G12D). Description: In-Cell Western phospho-Akt, Panc1. The settings on record: Homo sapiens, PANC-1, 1 h; Panc1, one hour treatment; read-out: In-Cell Western Panc1 (G12D) Akt (P). The essentials: (§1)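 One-hour compound treatment of cells plated a day earlier, 0.5% DMSO. Phospho-signal detected by in-cell immunofluorescence imaging; EC50 calculated.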

The subject of assay [2] is U87-MG (K-Ras wild type cell line). Description: Viability assay (CellTiterBlue, 72 hr) U87-MG. The settings on record: Homo sapiens, U-87 MG, GI50, CellTiterBlue, U87-MG K-Ras wild-type. The essentials: (§2)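 1000 cells/well, 18 hr pre-incubation at 37 °C; compound added from DMSO stock, 0.5% DMSO final; 72 hr; CellTiterBlue 3 hr, fluorescence Ex550/Em590; GI50 normalized to DMSO = 100%, 100 uM tamoxifen = 0% viability.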
(Resazurin is reduced to fluorescent resorufin, in cell work by metabolically active cells.)

The next assay concerns HCT116-G31D. Description: Viability assay (CellTiterBlue, 72 hr) HCT116. The settings on record: Homo sapiens, HCT-116, GI50, CellTiterBlue, HCT116 K-Ras G13D, read-out: 72 hr Cell Viability HCT116 (G13D). A digest of the protocol: as §2
The subject of assay [3] is HCC827 (K-Ras wild type cell line). The experiment in a line: Viability assay (CellTiterBlue, 72 hr) HCC827. The settings on record: Homo sapiens, GI50, CellTiterBlue, HCC827 K-Ras wild-type. A digest of the protocol:
as §2

Assay [4] has as its system phospho-ERK in HCC827 (Wild-type). The experiment in a line: In-Cell Western phospho-ERK, HCC827. The following applies: Homo sapiens, 1 h; HCC827, one hour treatment; read-out: In-Cell Western HCC827 (Wild-type) Erk (P). The essentials: as §1
The subject of assay [5] is Ishikawa (K-Ras wild type cell line). The experiment in a line: Viability assay (CellTiterBlue, 72 hr) Ishikawa. The following applies: Homo sapiens, GI50, CellTiterBlue, Ishikawa K-Ras wild-type. The essentials: as §2
The test system of another assay is Panc10.05-G12D. Description: Viability assay (CellTiterBlue, 72 hr) Panc10.05. The settings on record: Homo sapiens, Panc1005, GI50, CellTiterBlue, Panc10.05 K-Ras G12D, read-out: 72 hr Cell Viability Panc10.05 (G12D). A digest of the protocol: as §2
The subject of assay [6] is phospho-ERK in Panc1 (G12D). The experiment in a line: In-Cell Western phospho-ERK, Panc1. The following applies: Homo sapiens, PANC-1, 1 h; Panc1, one hour treatment; read-out: In-Cell Western Panc1 (G12D) Erk (P). A digest of the protocol: as §1
The next assay relates to Panc1-G12D. The experiment in a line: Viability assay (CellTiterBlue, 72 hr) Panc1. The settings on record: Homo sapiens, PANC-1, GI50, CellTiterBlue, Panc1 K-Ras G12D, read-out: 72 hr Cell Viability Panc1 (G12D). A digest of the protocol: as §2
Assay [7] relates to phospho-Akt in HCC827 (Wild-type). The experiment in a line: In-Cell Western phospho-Akt, HCC827. The following applies: Homo sapiens, 1 h; HCC827, one hour treatment; read-out: In-Cell Western HCC827 (Wild-type) Akt (P). The protocol:
In-cell phosphorylation assays for Erk and Akt were performed on several of the compounds and exemplary results are shown in Table 3 below using HCC827 and A375 cell lines for wild type K-Ras and Panc1 and Panc10.05 cell lines for G12D K-Ras mutants. Results are expressed in μM and corresponding structures are shown in FIGS. 2A-2G and Examples 1-152, above.
Cells are seeded in complete medium into black sided, clear-bottom 384-well microplates at 3000 cells/[…]/well. Plates are returned to 37° C. CO2 incubator for 18 hr. Drug is made as 200× in DMSO and diluted into medium to 10×. To each well is added 4 ul 10× test article or controls, and plates are returned to the incubator. Final assay DMSO concentration is 0.5%. After one hour, cells are fixed in formaldehyde, rinsed & permeabilized with triton X-100, and blocked with BSA/Goat serum blocking solution. Primary phospho-Akt and phospho-ERK antibodies are added and plates are incubated overnight at 4° C. Plates are rinsed with Tween-20 wash buffer and secondary antibody (Goat anti-rabbit, Thermofisher) is added. After 2 hours, plates are rinsed in Tween-20 wash buffer, and then PBS. Plates are imaged on the Celigo (Nexcelom) and cellular fluorescence is quantitated. Full inhibition of phospho-Akt is achieved with 1 uM BEZ235 (Sellekchem), while full inhibition of phospho-ERK is achieved with 1 uM MEK Inhibitor II Calbiochem). EC50 values are calculated using Graphpad Prism.

In assay [8] the test system is phospho-Akt in A375 (Wild-type). The experiment in a line: In-Cell Western phospho-Akt, A375. The settings on record: Homo sapiens, A-375, 1 h; A375, one hour treatment; read-out: In-Cell Western A375 (Wild-type) Akt (P). A digest of the protocol: as §1
Assay [9] concerns A375 (K-Ras wild type cell line). Description: Viability assay (CellTiterBlue, 72 hr) A375. The following applies: Homo sapiens, A-375, GI50, CellTiterBlue. The essentials: as §2
Assay [10] relates to phospho-Akt in Panc10.05 (G12D). The experiment in a line: In-Cell Western phospho-Akt, Panc10.05. The following applies: Homo sapiens, Panc1005, 1 h; Panc10.05, one hour treatment; read-out: In-Cell Western Panc10.05 (G12D) Akt (P). The essentials:
as §1

The target in the next assay is T1, wild type K-Ras (Homo sapiens, UniProt P01116).
T1 construct: expressed in transfected cells; host or cells: 293H cells
The experiment in a line: G-LISA Ras activation, 293H cells transfected with Ras wild-type, EGF stimulated. The following applies: compound 1 hour, then 100 ng/ml EGF 2 minutes. A digest of the protocol: (§3)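 Active Ras was quantified by G-LISA in lysates of 293H cells transiently expressing wild-type or mutant Ras. Compounds (3.125-25 μM) were applied for 1 hour; only wild-type transfected cells were stimulated with 100 ng/ml EGF for 2 minutes.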

For another assay, the target named is T2, K-Ras G12D (Homo sapiens, UniProt P01116, G12D).
T2 construct: expressed in transfected cells; host or cells: 293H cells
Description: G-LISA Ras activation, 293H cells transfected with G12D mutant. The settings on record: compound 1 hour. A digest of the protocol: as §3

The test system of assay [11] is phospho-ERK in A375 (Wild-type). Description: In-Cell Western phospho-ERK, A375. The following applies: Homo sapiens, A-375, 1 h; A375, one hour treatment; read-out: In-Cell Western A375 (Wild-type) Erk (P). The essentials:
as §1

Assay [12] deals with phospho-ERK in Panc10.05 (G12D). Description: In-Cell Western phospho-ERK, Panc10.05. The settings on record: Homo sapiens, Panc1005, 1 h; Panc10.05, one hour treatment; read-out: In-Cell Western Panc10.05 (G12D) Erk (P). The essentials:
as §1

T1 sequence (P01116 whole entry): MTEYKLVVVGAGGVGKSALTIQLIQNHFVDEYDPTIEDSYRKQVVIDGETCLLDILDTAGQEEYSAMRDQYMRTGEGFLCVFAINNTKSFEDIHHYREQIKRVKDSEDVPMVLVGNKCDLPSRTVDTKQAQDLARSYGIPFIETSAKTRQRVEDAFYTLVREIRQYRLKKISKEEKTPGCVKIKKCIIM
T2 sequence (P01116 whole entry G12D): as the sequence (P01116 whole entry) above, with G12D counted along it

Regarding `Cc1nn(-c2ccccc2)cc1C(=O)Nc1nc(-c2ccc3c(c2)CCC(=O)N3)cs1` [Compound 31, 3-methyl-N-(4-(2-oxo-1,2,3,4-tetrahydroquinolin-6-yl)thiazol-2-yl)-1-phenyl-1H-pyrazole-4-carboxamide], the EC50 in [1], in [4], in assay [6] and in assay [7] was over 25 µM each time. The IC50 (in assay [2]; in the assay with HCT116-G31D; in [3]; in [5]; in the assay on Panc10.05-G12D; with Panc1-G12D) was over 25 µM throughout.

Take `Cn1cc(C(=O)Nc2nc(-c3ccc4c(c3)CCC(=O)N4)cs2)c(C(C)(C)C)n1` [Compound 38, 3-(tert-butyl)-1-methyl-N-(4-(2-oxo-1,2,3,4-tetrahydroquinolin-6-yl)thiazol-2-yl)-1H-pyrazole-4-carboxamide]: the EC50 in [1] is 24 µM; in assay [4], 13 µM; in assay [6], over 25 µM; in assay [7], over 25 µM. The IC50 in assay [2] is over 25 µM; in the assay with HCT116-G31D, over 25 µM; in assay [3], over 25 µM; in assay [5] it was 7 µM; in the assay on Panc10.05-G12D it was 7 µM; in the assay with Panc1-G12D, over 25 µM.

For the compound `Cn1cc(C(=O)Nc2nc(-c3ccc4c(c3)CCC(=O)N4)cs2)cn1` [Compound 28, 1-methyl-N-(4-(2-oxo-1,2,3,4-tetrahydroquinolin-6-yl)thiazol-2-yl)-1H-pyrazole-4-carboxamide], the EC50 is over 25 µM in assay [1], 16 µM in assay [4], over 25 µM in assay [6] and over 25 µM in assay [7]. Besides, the IC50 (in assay [2]; in the assay on HCT116-G31D; in assay [3]; in assay [5]; in the assay on Panc10.05-G12D; with Panc1-G12D) was over 25 µM in each case.

With `Cn1cc(C(=O)Nc2nc(-c3ccc4c(c3)CCC(=O)N4)cs2)c(C(F)F)n1` [Compound 27, 3-(difluoromethyl)-1-methyl-N-(4-(2-oxo-1,2,3,4-tetrahydroquinolin-6-yl)thiazol-2-yl)-1H-pyrazole-4-carboxamide], the EC50 in [1] is over 25 µM; in assay [4], over 25 µM; in [6], 14 µM; in assay [7], over 25 µM. The IC50 is over 25 µM in assay [2]; over 25 µM in the assay on HCT116-G31D; over 25 µM in [3]; over 25 µM in [5]; 16 µM in the assay on Panc10.05-G12D; over 25 µM in the assay with Panc1-G12D.

As for `COc1nn(C)cc1C(=O)Nc1nc(-c2ccc3c(c2)CCC(=O)N3)cs1` [Compound 42, 3-methoxy-1-methyl-N-(4-(2-oxo-1,2,3,4-tetrahydroquinolin-6-yl)thiazol-2-yl)-1H-pyrazole-4-carboxamide], the EC50 in [1], in assay [4], in [6] and in assay [7] was over 25 µM throughout. The IC50 (in assay [2]; with HCT116-G31D; in assay [3]; in assay [5]; with Panc10.05-G12D; with Panc1-G12D) was over 25 µM throughout.

Turning to `CCn1cc(C(=O)Nc2nc(-c3ccc4c(c3)CCC(=O)N4)cs2)c(C(F)(F)F)n1` [Compound 39, 1-ethyl-N-(4-(2-oxo-1,2,3,4-tetrahydroquinolin-6-yl)thiazol-2-yl)-3-(trifluoromethyl)-1-pyrazole-4-carboxamide], the EC50 in assay [1] was over 25 µM; in assay [4], over 25 µM; in [6], 28 µM; in [7], over 25 µM. Also, the IC50 (in [2]; with HCT116-G31D; in assay [3]; in assay [5]; in the assay with Panc10.05-G12D; with Panc1-G12D) was over 25 µM in each case.

`CC(C)c1nn(C)cc1C(=O)Nc1nc(-c2ccc3c(c2)CCC(=O)N3)cs1` [Compound 32, 3-isopropyl-1-methyl-N-(4-(2-oxo-1,2,3,4-tetrahydroquinolin-6-yl)thiazol-2-yl)-1H-pyrazole-4-carboxamide]: the EC50 in [1] is 26 µM; in assay [4], 20 µM; in assay [6], over 25 µM; in [7], over 25 µM. The IC50 was 9 µM in assay [2]; over 25 µM with HCT116-G31D; 8 µM in assay [3]; over 25 µM in assay [5]; over 25 µM in the assay on Panc10.05-G12D; over 25 µM in the assay with Panc1-G12D.

For the compound `Cn1cc(C(=O)Nc2nc(-c3ccc4c(c3)CCC(=O)N4)cs2)c(-c2ccccc2)n1` [Compound 29, 1-methyl-N-(4-(2-oxo-1,2,3,4-tetrahydroquinolin-6-yl)thiazol-2-yl)-3-phenyl-1H-pyrazole-4-carboxamide], the EC50 in assay [1] was over 25 µM; in assay [4], 21 µM; in assay [6], 13 µM; in assay [7], over 25 µM. The IC50 (in assay [2]; with HCT116-G31D; in [3]; in assay [5]; in the assay on Panc10.05-G12D; in the assay with Panc1-G12D) was over 25 µM each time.

Take `CCn1nc(C)c(C(=O)Nc2nc(-c3ccc4c(c3)CCC(=O)N4Cc3cccnc3)cs2)c1C` [Compound 114, 1-ethyl-3,5-dimethyl-N-(4-(2-oxo-1-(pyridin-3-ylmethyl)-1,2,3,4-tetrahydroquinolin-6-yl)thiazol-2-yl)-1H-pyrazole-4-carboxamide]: the EC50 is 17 µM in assay [1]; over 25 µM in assay [8]; 17 µM in assay [10]; 4 µM in [4]; 1.1 µM in assay [6]; 5 µM in assay [11]. Besides, the EC50 in assay [12] came out at 1900 nM. The IC50 is 6 µM in assay [9]; over 25 µM in [2]; 5 µM with HCT116-G31D; over 25 µM in assay [3]; 6 µM against wild type K-Ras; 3 µM against K-Ras G12D. Further, the IC50 in assay [5] is over 25 µM; in the assay on Panc10.05-G12D it was 1.1 µM; in the assay on Panc1-G12D it was 22 µM.
